From patent US20040058901A1, “Crystalline ethanolate solvate form of zafirluskast process for manufacture and pharmaceutical compositions thereof” (priority 2000, published 2004)
Values joined by “and” are separate entries in the source; they are usually repeats but may differ in a detail not shown here. Identical values can stand only once. “Also recorded” adds a separate entry of the source. Like-named read-outs stand apart in the source and are kept apart here. Blank lines part the entries; values can stand above or below the compound they belong to.

Tests used:
[1] = cited from earlier work; for physical stability of the solid form: as disclosed in U.S. Pat. No. 5,993,859
[2] = as disclosed in U.S. Pat. No. 5,993,859; cited from earlier work
[3] = Hygroscopicity comparison in controlled humidity chambers, Karl Fisher water content; type: physicochemical; details: compared with zafirlukast Form A; 25° C./60% relative humidity and 40° C./75% relative humidity, two weeks
Description: Hygroscopicities of zafirlukast ethanolate and zafirlukast Form A were compared by maintaining samples in controlled humidity chambers at 25° C. under 60% relative humidity and at 40° C. under 75% relative humidity for a period of two weeks, followed by Karl Fisher analysis of water content.

[4] = Drying of zafirlukast ethanolate in an air oven (weight loss, physical properties); type: physicochemical; details: 105±1° C., 4 hours
Description: Preferably, the methods further comprise the step of drying the crystals of zafirlukast ethanolate. Effective drying methods include vacuum oven drying, air oven or simple vacuum desiccator drying. The ethanolate is stable at ambient temperature and will tolerate vacuum drying. When vacuum oven drying is used, one must exercise caution to avoid breaking the ethanolate. Preferred drying conditions for the ethanol solvate are about 30 to about 70° C. vacuum oven drying and are about 30 to about 105° C. at air oven drying.
5.0 g of zafirlukast Forms A, B or X, prepared according to U.S. Pat. No. 5,993,859 or zafirlukast, prepared according to J. Med. Chem., v. 33, 1781 (1990) were dissolved in hot acetone (50 mL). The solution was concentrated under reduced pressure to the volume of about 20 mL, heated to reflux and absolute ethanol (100 mL) was added to the solution. Acetone was distilled off from the stirred mixture through a 10 cm Vigreux column equipped with a distillation head until the temperature of vapor in the head of the column reached 78° C. The resulting mixture was kept overnight at the room temperature. The precipitated crystals were filtered off, washed on filter with ice cold absolute ethanol (2×5 mL) and dried under reduced pressure at 60° C. (water bath) to give crystalline zafirlukast ethanolate with mp 130-132° C.

[5] = Physical stability of zafirlukast ethanolate and its compositions; type: physicochemical
[6] = high relative humidity and elevated temperatures

SMILES: COc1cc(C(=O)NS(=O)(=O)c2ccccc2C)ccc1Cc1cn(C)c2ccc(NC(=O)OC3CCCC3)cc12 [Form X, cyclopentyl 3-[2-methoxy-4-[(o-tolylsulfonyl)carbamoyl]benzyl]-1-methylindole-5-carbamate]
- physical stability of the solid form [1]: physically stable
- bioavailability [2]: relatively poor bioavailability

SMILES: COc1cc(C(=O)NS(=O)(=O)c2ccccc2C)ccc1Cc1cn(C)c2ccc(NC(=O)OC3CCCC3)cc12 [Form A, cyclopentyl 3-[2-methoxy-4-[(o-tolylsulfonyl)carbamoyl]benzyl]-1-methylindole-5-carbamate]
- form conversion under high relative humidity and elevated temperatures [1, 6]: conversion of form A into form B occurs
- bioavailability [2]: relatively good bioavailability

SMILES: COc1cc(C(=O)NS(=O)(=O)c2ccccc2C)ccc1Cc1cn(C)c2ccc(NC(=O)OC3CCCC3)cc12 [Form B, cyclopentyl 3-[2-methoxy-4-[(o-tolylsulfonyl)carbamoyl]benzyl]-1-methylindole-5-carbamate]
- physical stability of the solid form [1]: physically unstable

- weight loss on drying [4]: < 1% and 0.86%
- physical stability of the solid form [5]: relatively stable
- stability at ambient temperature ([5]; ambient temperature): stable
- stability under high relative humidity and elevated temperatures [5, 6]: stable
SMILES: CCO.COc1cc(C(=O)NS(=O)(=O)c2ccccc2C)ccc1Cc1cn(C)c2ccc(NC(=O)OC3CCCC3)cc12 [zafirlukast ethanolate]
- hygroscopicity [3]: less hygroscopic than other known forms of zafirlukast; also recorded: less hygroscopic than Form A of zafirlukast
- change of physical properties on drying (mp, 1H NMR, infra-red spectra) [4]: without substantial change of physical properties
